Assay results taken from publication PMC4583267, “Synthesis and Evaluation of Novel Triterpene Analogues of Ursolic Acid as Potential Antidiabetic Agent” (PLoS ONE, 2015).
Read-outs that look alike come from different tables or passages of the source.

Columns and labels:
[1] = target: T1, α-glucosidase from baker's yeast (Saccharomyces cerevisiae, UniProt P53341); experiment: biochemical
T1 construct: purchased
Protocol: A stock solution of each sample, which has been dissolved in dimethylsulfoxide (DMSO) at the concentrations of 0.05 μM to 500 μM, was diluted with 0.1 M phosphate buffer solution (pH = 6.8) containing an appropriate concentration of enzyme solution (0.1 U/mL). After a 10 min pre-incubation at 37°C of the reactions, the substrate (1mM p-nitrophenyl-α-D-glucopyranoside) was added to initiate them. Then the reactions were incubated for 30 min at 37°C before they were terminated by adding 1 M Na2CO3, and their optical density values were measured at 405 nm by using a Multimodel Plate Reader (Infinite 200). Each experiment was repeated at least four times.
To determine the inhibition activity of each sample, the enzyme activity was measured at a fixed substrate concentration, in which a sequence of sample concentrations were tested. The IC50 value was calculated according to the curve fit to the sequence of concentrations versus the corresponding inhibition abilities. The results were illustrated in Table 1 and Fig 3.
The α-glucosidase inhibition assay was performed according to the method of Worawalai et al. with a slight modification. The α-glucosidase enzyme (0.1 U/mL) and substrate (1 mM p-nitrophenyl-α-D-glucopyranoside) were dissolved in 0.1 M phosphate buffer, pH 6.8. 10 μL of each synthesized analogue (1 mg/mL in DMSO) was pre-incubated with 8 μL of α-glucosidase at 37°C for 10 min. A 100 μL of substrate solution was then added to the reaction mixture, which was further incubated at 37°C for 30 min. Then, the reaction was terminated by adding 100 μL of 1 M Na2CO3 solution. Enzymatic activity was quantified by measuring the absorbance at 405 nm with a use of a Multimodel Plate Reader (Infinite 200). The percentage of inhibition was calculated by using [(A 0-A 1)/A 0]×100%, where A 0 was the absorbance without the sample, and A 1 was the absorbance with the sample. The IC50 value was determined from a plot of the percentage of inhibition versus the sample concentration.

[2] = target: T1, α-glucosidase from baker's yeast; settings: cited from earlier work; for Observed pIC50: S4 Table, analogues of previous work; for IC50: values of earlier work
[3] = Table 1, read-out: Observed pIC50 (converted)

T1 sequence (P53341 whole entry): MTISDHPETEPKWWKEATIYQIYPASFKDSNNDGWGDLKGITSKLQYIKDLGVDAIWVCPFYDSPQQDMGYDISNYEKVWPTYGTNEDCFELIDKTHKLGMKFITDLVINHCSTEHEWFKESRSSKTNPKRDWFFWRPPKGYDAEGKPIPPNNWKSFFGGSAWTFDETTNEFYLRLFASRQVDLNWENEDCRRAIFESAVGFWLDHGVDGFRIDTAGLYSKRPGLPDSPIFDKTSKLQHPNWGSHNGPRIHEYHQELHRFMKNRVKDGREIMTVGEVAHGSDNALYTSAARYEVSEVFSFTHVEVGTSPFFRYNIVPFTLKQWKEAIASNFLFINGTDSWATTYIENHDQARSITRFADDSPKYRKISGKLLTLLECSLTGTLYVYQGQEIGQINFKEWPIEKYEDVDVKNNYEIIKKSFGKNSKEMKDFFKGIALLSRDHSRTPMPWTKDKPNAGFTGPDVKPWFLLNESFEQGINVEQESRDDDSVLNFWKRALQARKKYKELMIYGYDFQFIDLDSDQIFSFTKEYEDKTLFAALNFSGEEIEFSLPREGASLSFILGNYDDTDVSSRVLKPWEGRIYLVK

| IC50 [1, 3] [nM] | SMILES | Observed pIC50 [2] | other results |
| --- | --- | --- | --- |
| – | C[C@H]1[C@H](C)CC[C@]2(C(=O)O)CC[C@]3(C)C(=CC[C@@H]4[C@@]5(C)CC[C@H](O)C(C)(C)[C@@H]5CC[C@]43C)[C@H]12 [Analogue 1, 3β-hydroxy-urs-12-en-28-oic acid, reference compound] | – | IC50 [1]: 5080 ± 700 nM |
| – | CC(=O)O[C@H]1CC[C@@]2(C)C(CC[C@]3(C)C2CC=C2C4[C@@H](C)[C@H](C)CC[C@]4(C(=O)O)CC[C@]23C)C1(C)C (stereo partly shown) [Analogue 2] | 5.278 | IC50 [2]: 5270 ± 350 nM |
| – | CC(=O)O[C@H]1CC[C@@]2(C)C(CC[C@]3(C)C2CC=C2C4[C@@H](C)[C@H](C)CC[C@]4(C(=O)Nc4ccccc4)CC[C@]23C)C1(C)C (stereo partly shown) [Analogue 3a] | 5.249 | IC50 [2]: 5640 ± 1120 nM |
| 1690 | C[C@@H]1CC[C@]2(C(=O)Nc3ccccc3)CC[C@]3(C)C(=CCC4[C@@]5(C)CC[C@H](O)C(C)(C)C5CC[C@]43C)C2[C@H]1C (stereo partly drawn) [Analogue 3b, N-[3β-Hydroxy-urs-12-en-28-oyl]-aminobenzene] | – | – |
| – | CC(=O)O[C@H]1CC[C@@]2(C)C(CC[C@]3(C)C2CC=C2C4[C@@H](C)[C@H](C)CC[C@]4(C(=O)Nc4ccccc4F)CC[C@]23C)C1(C)C (stereo partly shown) [Analogue 4a] | 4.848 | – |
| 1510 | C[C@@H]1CC[C@]2(C(=O)Nc3ccccc3F)CC[C@]3(C)C(=CCC4[C@@]5(C)CC[C@H](O)C(C)(C)C5CC[C@]43C)C2[C@H]1C (stereo partly drawn) [Analogue 4b, N-[3β-Hydroxy-urs-12-en-28-oyl]-o-fluoroaniline] | – | – |
| – | CC(=O)O[C@H]1CC[C@@]2(C)C(CC[C@]3(C)C2CC=C2C4[C@@H](C)[C@H](C)CC[C@]4(C(=O)Nc4ccccc4Cl)CC[C@]23C)C1(C)C (stereo partly shown) [Analogue 5a] | 4.481 | – |
| 1310 | C[C@@H]1CC[C@]2(C(=O)Nc3ccccc3Cl)CC[C@]3(C)C(=CCC4[C@@]5(C)CC[C@H](O)C(C)(C)C5CC[C@]43C)C2[C@H]1C (stereo partly drawn) [Analogue 5b, N-[3β-Hydroxy-urs-12-en-28-oyl]-o-chloroaniline] | – | – |
| – | CC(=O)O[C@H]1CC[C@@]2(C)C(CC[C@]3(C)C2CC=C2C4[C@@H](C)[C@H](C)CC[C@]4(C(=O)Nc4ccccc4Br)CC[C@]23C)C1(C)C (stereo partly shown) [Analogue 6a] | 4.954 | – |
| 2560 | C[C@@H]1CC[C@]2(C(=O)Nc3ccccc3Br)CC[C@]3(C)C(=CCC4[C@@]5(C)CC[C@H](O)C(C)(C)C5CC[C@]43C)C2[C@H]1C (stereo partly drawn) [Analogue 6b, N-[3β-Hydroxy-urs-12-en-28-oyl]-o-bromoaniline] | – | – |
| – | CC(=O)O[C@H]1CC[C@@]2(C)C(CC[C@]3(C)C2CC=C2C4[C@@H](C)[C@H](C)CC[C@]4(C(=O)Nc4ccc(F)cc4)CC[C@]23C)C1(C)C (stereo partly shown) [Analogue 7a] | 5.185 | – |
| 1670 | C[C@@H]1CC[C@]2(C(=O)Nc3ccc(F)cc3)CC[C@]3(C)C(=CCC4[C@@]5(C)CC[C@H](O)C(C)(C)C5CC[C@]43C)C2[C@H]1C (stereo partly drawn) [Analogue 7b, N-[3β-Hydroxy-urs-12-en-28-oyl]-p-fluoroaniline] | – | – |
| – | CC(=O)O[C@H]1CC[C@@]2(C)C(CC[C@]3(C)C2CC=C2C4[C@@H](C)[C@H](C)CC[C@]4(C(=O)Nc4ccc(Cl)cc4)CC[C@]23C)C1(C)C (stereo partly shown) [Analogue 8a] | 5.489 | IC50 [2]: 3240 ± 210 nM |
| 1270 | C[C@@H]1CC[C@]2(C(=O)Nc3ccc(Cl)cc3)CC[C@]3(C)C(=CCC4[C@@]5(C)CC[C@H](O)C(C)(C)C5CC[C@]43C)C2[C@H]1C (stereo partly drawn) [Analogue 8b, N-[3β-Hydroxy-urs-12-en-28-oyl]-p-chloroaniline] | – | – |
| – | CC(=O)O[C@H]1CC[C@@]2(C)C(CC[C@]3(C)C2CC=C2C4[C@@H](C)[C@H](C)CC[C@]4(C(=O)Nc4ccc(Br)cc4)CC[C@]23C)C1(C)C (stereo partly shown) [Analogue 9a] | 5.030 | – |
| 1280 | C[C@@H]1CC[C@]2(C(=O)Nc3ccc(Br)cc3)CC[C@]3(C)C(=CCC4[C@@]5(C)CC[C@H](O)C(C)(C)C5CC[C@]43C)C2[C@H]1C (stereo partly drawn) [Analogue 9b, N-[3β-Hydroxy-urs-12-en-28-oyl]-p-bromoaniline] | – | – |
| 2550 | COc1ccc(NC(=O)[C@]23CC[C@@H](C)[C@H](C)C2C2=CCC4[C@@]5(C)CC[C@H](O)C(C)(C)C5CC[C@@]4(C)[C@]2(C)CC3)cc1 (stereo partly drawn) [Analogue 10b, N-[3β-Hydroxy-urs-12-en-28-oyl]-p-methoxylaniline] | – | – |
| – | C[C@@H]1CC[C@]2(C(=O)O)CC[C@]3(C)C(=CCC4[C@@]5(C)CCC(=O)C(C)(C)C5CC[C@]43C)C2[C@H]1C (stereo partly shown) [Analogue 11, 3-Oxo-urs-12-en-28-oic acid] | – | IC50 [1]: 2470 nM |

| SMILES | IC50 [1, 3] [nM] | Observed pIC50 [2] | other results |
| --- | --- | --- | --- |
| COc1ccc(NC(=O)[C@]23CC[C@@H](C)[C@H](C)C2C2=CCC4[C@@]5(C)CC[C@H](OC(C)=O)C(C)(C)C5CC[C@@]4(C)[C@]2(C)CC3)cc1 (stereo partly drawn) [Analogue 10a, N-[3β-acetoxy-urs-12-en-28-oyl]-p-methoxyamiline] | 2010 | – | – |
